Measured values taken from PubChem BioAssay (NCI).
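Following 48 hours of exposure in 96-well plates, responses at five concentrations were used to interpolate endpoints linearly. Here, GI50 denotes the concentration required for 50% inhibition of growth. TGI: total growth inhibition.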

Test system: MDA-MB-468 breast
Experiment: DTP human tumour cell line panel, 48 h

Row | Structure (SMILES) | GI50 [µM] | TGI [µM]
1 | CS(=O)(=O)Nc1cc(-c2ccc3ncc(C#N)c(NCc4ccccc4)c3c2)cnc1Cl | 0.0819 | 0.896
2 | CCOC(=O)c1ccc2[nH]c(Cc3[nH]c4ccc(C(=O)OCC)cc4c3C)c(C)c2c1 | 5.59 | 28.9
3 | O=C1CN2CCC1C/C2=C\c1ccnc2c(Cl)cccc12 (stereo not given) | 14.8 | 57.9
4 | CN1CCN(CCCOc2ccc3ncnc(Nc4ccc(Oc5cccc(C(F)(F)F)c5)c(Cl)c4)c3c2)CC1 | 1.07 | 2.87
5 | C=C1C(=O)O[C@H]2[C@H]1CC/C(COC(=O)N[C@@H](Cc1c[nH]c3ccccc13)C(=O)OC)=C\CC[C@@]1(C)O[C@@H]21 | 1.23 | 3.05
6 | COc1cc(N)ccc1Nc1c2ccccc2nc2ccccc12 | 11.8 | 28.8
7 | Cc1cc(S(=O)(=O)/N=C(\N)n2nc(C)c(C)c2C)c(SCc2ccccc2)cc1Cl | 12.1 | 92.4
8 | C=C1C(=O)O[C@H]2[C@H]1CC/C(Cn1cc(Cn3ccc4cc(Cl)ccc43)nn1)=C\CC[C@@]1(C)O[C@@H]21 | 0.908 | 2.55
9 | C[C@]12CC[C@H](O)C[C@@H]1CC[C@@H]1[C@@H]2CC[C@@]2(C)[C@H]1CC[C@@H]2[C@](C)(O)CCc1ccc(F)cc1 | 2.44 | 28.2
10 | Fc1ccc(Nc2ccc3cc(OCCCN4CCOCC4)ccc3n2)cc1F | 3.35 | 19.3
11 | C/C(=C\c1ccn(-c2ccc(N)cc2C(F)(F)F)n1)[C@@H]1C[C@@H]2O[C@]2(C)CCC[C@H](C)[C@H](O)[C@@H](C)C(=O)C(C)(C)[C@@H](O)CC(=O)O1 | 0.289 | 0.873
12 | O=C1CC(N2C(=O)/C(=C/C(Cl)=C\c3ccc([N+](=O)[O-])cc3)SC2=S)C(=O)N1c1ccc(Cl)cc1 (stereo not given) | 1.33 | 3.1
13 | Cc1c(N(C(=O)c2cc(-c3cc(Cl)ccc3C(=O)N3Cc4ccccc4C[C@H]3CN3CCOCC3)n(C)c2C)c2ccc(O)cc2)cc(C#N)n1C | 4.7 | 25.2
14 | CN1CCN(Cc2ccc(NC(=O)c3[nH]ncc3Nc3ccnc4ccsc34)cc2)CC1 | 2.12 | 5.54
15 | Cc1cc(Nc2nc(N3CCOCC3)nc3ccccc23)n[nH]1 | 4.36 | 38.2
16 | N#C/C(=C\c1ccc(Cl)cc1)n1nnc2cc(F)c(F)cc21 | 1.47 | 3.23
17 | O=C(Nc1nc(-c2ccc(Cl)cc2)cs1)c1ccc(O)c(O)c1 | 3.77 | 25.5
18 | Cc1cccc(Oc2ccc(Nc3ncnc4ccc(NC(=O)CN5CCN(C)CC5)cc34)cc2Cl)c1 | 0.448 | 2.07
19 | O=C(Nc1cccc(-c2nc3ccccc3[nH]2)c1)c1cccc(NC(=O)c2ccco2)c1 | 1.74 | 3.99
20 | CCC[C@H](Nc1nc(-c2ccc(NC(=O)NCC)c(OC)c2)ncc1C)c1cccnc1 | 0.0246 | 0.0709
21 | C[C@]12CC[C@H]3[C@@H](CC=C4C[C@@H](O)CC[C@@]43C)[C@@H]1C/C(=C\c1cccc(OCCCn3ccnc3)c1)[C@@H]2O | 7.43 | 31.3
22 | COc1ccc(C(=O)c2ccc(OC)cc2OC)cc1 | 1.21 | 3.89
23 | O=[N+]([O-])c1ccccc1/C=C/C=C1c2ccccc2-c2ccccc21 | 54.6 | > 100

Row | Structure (SMILES) | GI50 [µM] | TGI [µM]
24 | CCN(CC)CCCN1C(=O)c2c(c(C)c3c(oc4cc(O)ccc43)c2C)C1=O | 1.57 | 3.13
25 | CCCCCCCCO/N=C\c1c2c(O)c3c(O)c(C)c4c(c3c1O)C(=O)C(C)(O/C=C\C(OC)C(C)C(OC(C)=O)C(C)C(O)C(C)C(O)C(C)/C=C\C=C(\C)C(=O)N2)O4 (stereo not given) | 1.37 | 5.11
26 | O=C(CSc1nc2sc3c(c2c(=O)n1-c1ccccc1)CCCCC3)N/N=C/c1ccc(F)cc1 | 2.35 | 8.02
27 | Cc1ccc(-c2nc3nc(-c4ccc(Cl)cc4)nc(N4CCCNCC4)c3o2)cc1 | 1.78 | 3.42
28 | O=S(=O)(NCCNc1cc(-c2cn(-c3ccccc3)nc2-c2cccc(O)c2)ccn1)c1ccc(F)cc1 | 1.88 | 5.33
29 | O=c1[nH]cnc2c1nnn2[C@@H]1O[C@H](CO)[C@@H](O)[C@H]1O | 1.54 | 24.5
30 | Nc1c(C(=O)Nc2cccc3ccccc23)sc2nc3c(cc12)CCCCC3 | 0.231 | > 50
31 | CC(=O)O[C@H]1C(=O)[C@@]2(C)[C@H]([C@H](OC(=O)c3ccccc3)[C@]3(O)C[C@H](OC(=O)[C@H](OC(=O)CCC(=O)OC4CCC(S/N=C(N)/N=C(\N)N(C)C)CC4)[C@@H](NC(=O)c4ccccc4)c4ccccc4)C(C)=C1C3(C)C)[C@]1(OC(C)=O)CO[C@@H]1C[C@@H]2O (stereo not given in full) | 0.00732 | 0.0433
32 | C=C1C(=O)O[C@H]2[C@H]1CC/C(COC(=O)NCCc1c[nH]c3ccccc13)=C\CC[C@@]1(C)O[C@@H]21 | 1.38 | 4.32
33 | C[C@@H](Oc1cc(-c2cnn(C3CC4(CCNCC4)C3)c2)cnc1N)c1c(F)ccc(Cl)c1Cl | 0.562 | 2.12
34 | O=C(/C=C/c1ccc2c(c1)OCO2)c1ccccc1 | 13.9 | 28
35 | CN(C)c1ccc2[nH]c(O)c(C=Nc3ccc(S(N)(=O)=O)cc3)c2c1 | > 25 | > 25
36 | Cc1c(N)nc([C@H](CC(N)=O)NC[C@H](N)C(N)=O)nc1C(=O)N[C@H](C(=O)N[C@H](C)[C@@H](O)[C@H](C)C(=O)N[C@H](C(=O)NCCc1nc(-c2nc(C(=O)NCCC[S+](C)C)cs2)cs1)[C@@H](C)O)C(OC1OC(CO)C(O)C(O)C1OC1OC(CO)C(O)C(OC(N)=O)C1O)c1cnc[nH]1 (stereo not given in full) | 2.48 | 15.3
37 | Cc1cc(Nc2ncc(Cl)c(Nc3ccccc3S(=O)(=O)C(C)C)n2)c(OC(C)C)cc1C1CCNCC1 | 1.41 | 3.14
38 | COc1cc(C(=O)O)ccc1NC(=O)[C@@H]1N[C@@H](CC(C)(C)C)[C@](C#N)(c2ccc(Cl)cc2F)[C@H]1c1cccc(Cl)c1F | 5.12 | 16.2
39 | CNC(=O)c1ccc(Nc2nc(OC3CCCC3)c3c(-c4ccc5nc(C)oc5c4)c[nH]c3n2)c(OC)c1 | 0.424 | 27.6
40 | CCN(CC)CCCC(C)N/C(c1cccc(OC)c1)=c1\c(=O)[nH]n(-c2c3ccccc3nc3ccccc23)c(=O)\c1=C(/NC(C)CCCN(CC)CC)c1cccc(OC)c1 (stereo not given) | 1.18 | 3.09
41 | Cc1nn(-c2ccccc2)cc1/C=N/Nc1nc(Nc2ccccc2)nc(Nc2ccc(S(N)(=O)=O)cc2)n1 | 1.52 | 3.27
42 | CC1=C([Se]CC(OC(=O)[C@@H](CSSC(C)(C)C)NC(=O)C(C)(C)C)C(=O)NCCCCCC(=O)OCc2ccccc2)C(=O)c2ccccc2C1=O (stereo not given in full) | 2.19 | 4.35
43 | Nc1nc(N)c2c(n1)NC(c1ccc(C(F)(F)F)cc1)CC(c1ccc(Nc3nc(NCCO)nc(Nc4ccc(Cl)cc4)n3)cc1)=N2 (stereo not given) | 1.58 | 3.21
44 | O=C(/C=C/C12c3ccccc3C(c3ccccc31)C1C(=O)NC(=O)C12)c1ccco1 (stereo not given) | 2.2 | 4.93
45 | O=C1Nc2cc(OC(F)(F)F)ccc2Oc2ccc(-c3ccnc(N4CC[C@H](O)C4)c3)cc21 | 0.0129 | 0.368
